We go through four molecules from patent US12589114B2 (The Board of Trustees of the Leland Stanford Junior …, priority 2019, dated 2026).

Assay [1] has as its system human CD34+ cells. Kind of assay: Real-time PCR of megakaryocyte-related genes in 7-day differentiated cells from CD34+ bone marrow cells. Type of assay: cell-based. As for the experimental part:
(§1) We treated human CD34+ cells with different agonists and antagonists of GABRR1.
RNA isolation and Real-Time PCR. Total RNA was extracted by RNeasy Plus Micro kit and RNeasy MinElute Cleanup Kit following manufacturer's instructions (Qiagen). Synthesis of cDNA was performed with the SuperScript™ III Reverse Transcriptase (ThermoFisher Scientific). Real time PCR was done using the Fast SYBR® Green Master Mix (ThermoFisher Scientific) on the 7900 Fast Real-Time PCR System (Applied Biosystems). PCR products were analyzed on a 2% agarose gel.

In assay [2] the target is T1, GABRR1 (Mus musculus, UniProt P56475).
T1 construct: Mice were randomly grouped and injected once everyday using GABA agonists and antagonists; from tissue; host or cells: whole animal (C57BL/6J mice); read-outs in peripheral blood and bone marrow
Briefly: Flow cytometry of bone marrow HSPC populations of mice treated with agonists or antagonists of Gabrr1. Conditions: C57BL/6J mice, 7 days of treatment. Type of assay: in vivo. As to the method:
(§2) Mouse injection. […] Muscimol 2 mg/kg, TACA 2 mg/kg and SR95531 4 mg/kg was injected by i.p. The mice were treated for 7 days and then complete blood cell counting was done with the HemaTrue Hematology Analyzer (HESKE).
Flow Cytometry. Mouse bone marrow cells were harvested, washed, and resuspended in PBS containing 2% FBS, and subjected to the staining process with antibodies at their optimal concentrations. […] Then, to enrich HSCs and progenitor populations, cells were stained with APC-conjugated anti-c-Kit (2B8) and then with anti-APC magnetic beads (Miltenyi Biotec) after washing. The c-Kit+cells were eluted from LS columns (Miltenyi Biotec). Those cells then stained with the antibody cocktail directed against cell surface antigens as follows: for early progenitor analysis, Sca-1, Flk2, CD150, CD34, IL-7R, CD16/32, c-kit and the lineage markers Ter-119, B220, CD3, CD4, CD8a, Gr-1, CD11b, CD41. For late stage populations, cells were stained with antibodies specific for Sca-1, Endoglin [CD105], CD150, CD16/32, c-kit [CD117] and the lineage markers for 30 min at 4° C., DNA dye was used for the live/dead cells staining.
Surface marker cocktail of mouse hematopoietic stem and progenitor populations: • HSC: Lin-c-kit+Sca1+CD150+Endoglin+ • MPP: Lin-c-kit+Sca1+Endoglin−CD150− • GMP: Lin-c-kit+Sca1− CD41−FcgRII+ • EP: Lin-c-kit+Sca1− CD41−FcgRII−Endogilin+CD150− • MkP: Lin-c-kit+Sca1− CD150+CD41+ • PreGM: Lin-c-kit+Sca1− CD41−FcgRII−Endogilin−CD150− • Pre CFU-E: Lin-c-kit+Sca1− CD41−FcgRII−Endogilin+CD150+ • MEP: Lin-c-kit+Sca1− CD41−FcgRII−Endogilin−CD150+.
On the technique in general: A flow cytometer gives signals particle by particle.

For assay [3], the target named is T1, GABRR1. Kind of assay: Patch-clamp recording of GABA-evoked currents in purified GR+ and GR− MkPs and HSCs. Conditions: 1 mM GABA, whole-cell patch clamp. The assay is classed as cell-based. An excerpt: Gabrr1^+ (GR^+) and Gabrr1^− (GR^−) HSCs or MkPs cells were then purified and tested by electrophysiological recording using patch-clamp techniques.
Electrophysiology. Whole-cell voltage-clamped recordings were made from the dissociated blood cells perfused in oxygenated ACSF containing the following (in mM): 119 NaCl, 26 NaHCO3, 10 glucose, 1.25 NaH2PO4, 2.5 KCl, 2 CaCl2, 1 MgCl2, 2 Na-pyruvate, and 0.5 ascorbic acid, pH 7.4. […] Cells were voltage clamped at various levels between −80 mV to 60 mV. The pipette internal solution contains (in mM): 120 Cs—Cl, 20 tetraethylammonium-Cl, 20 HEPES, 2 EGTA, 4 MgATP, 0.4 NaGTP, 10 phosphocreatine.
The drug was applied through a second pipette (resistance of 3-4 MΩ) connected to Picospritzer (Cleveland, OH, USA) at a pulse duration of 100 ms and pressure of 5-10 kPa.

The target in assay [4] is T1, GABRR1. Briefly: Complete blood cell counts in peripheral blood of mice treated with agonists or antagonists of Gabrr1. The assay is classed as in vivo. Conditions: C57BL/6J mice, 7 days of treatment, injected once every day. As to the method:
as §2

Assay [5] relates to human CD34+ cells. Kind of assay: Flow cytometry of HSPC populations after 7-day differentiation of human CD34+ cells treated with agonists or antagonists of GABRR1. Type of assay: cell-based. As for the experimental part: as §1
Cell Isolation and Culture. Human bone marrow mononuclear cells were purchased from AllCells and cultured in StemSpan™ Serum-Free Expansion Medium II (SFEM II, StemCell Technologies), supplemented with 20 ng/ml hSCF (PeproTech), hTPO, hIL-3, hIL-6 and Flt3 (R&D Systems). Mouse bone marrow mononuclear cells were isolated from mice and cultured in StemSpan™ SFEMI (StemCell Technologies), supplemented with mTPO and mSCF (PeproTech). […] Medium was changed every other day.
Human bone marrow or cord blood cells were stained in a similar way using Rat IgG for blocking and PI for viability. Human cells were stained with the antibodies cocktails as follows: CD34, CD38, CD45RA, CD123, CD71, CD105, CD41 and the lineage markers CD2, CD4, CD8, CD11b/Mac-1, CD14, CD19, CD20, CD56 and CD235a. The GABRR1 antibodies were also used for staining (Bloss Antibodies).
Surface marker cocktail of human hematopoietic stem and progenitor populations: • HSCs/MPPs: Lin-CD34+CD38− • MkP: Lin-CD34+CD38+CD123−CD45RA−CD41+ • CMP: Lin-CD34+CD38+CD123lowCD45RA− • MEP: Lin-CD34+CD38+CD123−CD45RA− • GMP: Lin-CD34+CD38+CD123+CD45RA+ • EP: Lin-CD34+CD38+CD123−CD45RA−CD71+CD150+.

Assay [6] concerns human CD34+ cells. Briefly: CFU-MK colony-forming assay from CD34+ bone marrow cells. The assay is classed as cell-based. As to the method: as §1
Colony-Forming Unit Assay. Colony forming assay was performed using the MegaCult™-C Complete Kit with Cytokines (Stemcell Tech, 04971)) following manufacturer's instruction, Colonies were counted after 12-14 days of culture and megakaryopoietic colonies were stained using antibody provided in the kit.

Where [7] appears, read: 7-day differentiated human CD34+ cells, relative to non-treated cells.

T1 sequence (P56475 22-480): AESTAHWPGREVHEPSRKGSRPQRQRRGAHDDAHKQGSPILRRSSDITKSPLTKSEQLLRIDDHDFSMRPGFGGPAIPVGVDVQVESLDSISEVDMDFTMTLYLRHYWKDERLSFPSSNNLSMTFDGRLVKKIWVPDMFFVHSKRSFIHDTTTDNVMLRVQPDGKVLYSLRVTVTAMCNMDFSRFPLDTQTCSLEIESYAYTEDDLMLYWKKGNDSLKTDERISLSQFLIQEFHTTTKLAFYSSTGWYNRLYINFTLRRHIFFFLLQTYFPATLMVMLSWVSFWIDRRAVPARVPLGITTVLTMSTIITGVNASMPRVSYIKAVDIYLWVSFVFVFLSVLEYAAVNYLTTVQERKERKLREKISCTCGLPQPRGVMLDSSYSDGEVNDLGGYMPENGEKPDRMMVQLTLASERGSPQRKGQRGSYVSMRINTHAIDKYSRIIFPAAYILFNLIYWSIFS

Take `NCCCC(=O)O` [GABA, 4-aminobutanoic acid]: in the assay with human CD34+ cells [1], the Megakaryocyte-related gene expression entry is “significantly increased”. On GABRR1 [2], the “Increase of bone marrow MkPs” value is reported as 63.7%±24.4%. Besides, at GABRR1 [3], the “GABA-induced currents in GR+ HSCs” value was “significant currents were induced”. Moreover, the “GABA-induced inward current in GR+ MkP cells” value at GABRR1 [3] (various membrane potentials) is “prominent GABA-induced inward current”.
With `NCc1cc(=O)[nH]o1` [Muscimol, muscimol], the “Increase of bone marrow MkPs” value on GABRR1 [2] is recorded as 55.0%±26.7%. At GABRR1 [4], the “Increase of platelet numbers” value is 35.0%±13%.
As to `Br.COc1ccc(-c2ccc(=N)n(CCCC(=O)O)n2)cc1` [SR95531], in the assay on human CD34+ cells [5] (setting [7]), the “Change of CD34+CD41+ population (MkP)” value is reported as “decreased dramatically” and the “Change of CD34+CD71+ population (EP)” value is reported as “decreased dramatically”. For the same molecule, the “Frequency of all HSPCs tested” value in the assay with human CD34+ cells [5] (multicolor flow cytometry, 7 days of differentiation from CD34+ bone marrow cells) was “decreased the frequency of all HSPCs tested”. Further, in the assay with human CD34+ cells [5] (multicolor flow cytometry, 7 days of differentiation from CD34+ bone marrow cells, non-treated set to 1), the “MkP frequency relative to non-treated cells” value was 40.3%±13.6%. The “Increase of platelet numbers” value on GABRR1 [4] is reported as “did not affect platelet number significantly”. In addition, the “Decrease in megakaryocyte colonies” value in the assay with human CD34+ cells [6] worked out at 40%.
As for `NC/C=C/C(=O)O` [TACA, trans-4-aminocrotonic acid], the “Increase of bone marrow MkPs” value at GABRR1 [2] is recorded as 23.3%±31.1%. Moreover, at GABRR1 [4], the “Increase of platelet numbers” value was 24.6%±19.0%.
